The record followed here is patent US5387592A, “Substituted benzoxazole, benzthiazole, and benzimidazole derivatives as angiotensin II antagonists” (Imperial Chemical Industries PLC, priority 1991, dated 1995).

Counter-ions that a name gives are not always drawn.

The target in the test is T1, AII receptors (Cavia porcellus, UniProt Q9WV26).
T1 construct: the source of cell surface membranes is the guinea pig adrenal gland; from tissue; host or cells: guinea pig adrenal gland, cell surface membrane fraction
T1 sequence (Q9WV26 1-359): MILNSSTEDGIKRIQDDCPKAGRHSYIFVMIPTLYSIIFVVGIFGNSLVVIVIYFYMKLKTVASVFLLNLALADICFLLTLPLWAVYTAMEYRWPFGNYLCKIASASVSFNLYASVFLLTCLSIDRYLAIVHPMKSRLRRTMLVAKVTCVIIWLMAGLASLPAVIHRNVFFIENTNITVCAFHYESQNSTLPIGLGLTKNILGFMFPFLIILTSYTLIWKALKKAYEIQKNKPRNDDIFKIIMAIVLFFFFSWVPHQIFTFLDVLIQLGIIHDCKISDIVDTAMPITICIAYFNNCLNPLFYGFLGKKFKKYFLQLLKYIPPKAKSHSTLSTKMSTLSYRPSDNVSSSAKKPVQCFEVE
The test can be described thus: Test A: displacement of radiolabelled AII binding from guinea pig adrenal gland membrane fraction. The conditions noted are these: guinea pig adrenal gland membranes; read-out: IC50 (concentration for 50% displacement of radiolabelled AII binding). Here is the method:
This in vitro procedure involves the incubation of the test compound initially at a concentration of 100 micromolar (or less) in a buffered mixture containing fixed concentrations of radiolabelled AII and a cell surface membrane fraction prepared from a suitable angiotensin target tissue. In this test, the source of cell surface membranes is the guinea pig adrenal gland which is well known to respond to AII. Interaction of the radiolabelled AII with its receptors (assessed as radiolabel bound to the particulate membrane fraction following removal of unbound radiolabel by a rapid filtration procedure such as is standard in such studies) is antagonized by compounds which also bind to the membrane receptor sites and the degree of antagonism (observed in the test as displacement of membrane-bound radioactivity) is determined readily by comparing the receptor-bound radioactivity in the presence of the test compound at the specified test concentration with a control value determined in the absence of the test compound. Using this procedure compounds showing at least 50% displacement of radiolabelled AII binding at a concentration of 10^-4 M are retested at lower concentrations to determine their potency. […]

With `CCc1cc(OCc2ccc3oc(-c4ccccc4-c4nnn[nH]4)nc3c2)c2c(n1)CCCC2` [Example 3, 2-ethyl-5,6,7,8-tetrahydro-4-[(2-(2-(1H-tetrazol-5-yl)phenyl)benzoxazol-5-yl)methoxy]quinoline hydrochloride], the IC50 is 200 nM.
